# Experiments:
# [1] = tested on: BALB/cJ mice; assay: Prepulse inhibition of startle; assay type: in vivo, mouse
# Protocol: For chronic fluoxetine studies in BALB/cJ mice, 60 male BALB/cJ mice were tested in the OF for 30 min on days 19 or 20 of chronic fluoxetine treatment. Mice were then pretested and tested in the modified FST on days 21 and 22, respectively. Animals were then allowed to adapt to being singly housed, and were trained for NIH on days 25-27. Home cage and novel cage testing occurred on days 28 and 29, respectively. Mice were then assessed for PPI on days 34 or 35.
# Studies of subchronic fluoxetine were conducted using separate groups of 60 male BALB/cJ mice to prevent fluoxetine treatment from exceeding one week. One group was tested in the OF after one day of subchronic fluoxetine treatment. Mice were then pretested after 6 and tested after 7 days of subchronic fluoxetine treatment in the modified FST. A second group of BALB/cJ mice began fluoxetine treatment after being singly housed. They were then tested in the NIH test after 4 (home) and 5 (novel) days of subchronic fluoxetine treatment. A third group was tested for PPI after one or two days of subchronic fluoxetine treatment.
# Prepulse Inhibition: Startle experiments were performed in MED-Associates chambers. Nonrestrictive Plexiglas cylinders 5 cm in diameter rested on a Plexiglas platform with a transducer amplifier. The sound-dampening isolation chambers were ventilated, well-lit, and equipped with an acoustic stimulator. Data acquisition was performed using Med-Associates software.
# Five different trial types were presented in the test session: a 40-msec broadband 120 dB burst (PULSE ALONE trial); three different PREPULSE+PULSE trials in which 20-msec long 3 dB (pp3), 6 dB (pp6), or 12 dB (pp12) stimuli above a 70 dB background preceded the 120 dB pulse by 100 msec (onset to onset), and a NO STIMULUS trial, in which only the background noise was presented. Trials were presented in a pseudo-random order. A variable interval of 10-20 seconds separated trials.
# The test session consisted of 62 test trials. The session began with a 10 min acclimation period, followed by four consecutive blocks of test trials. Blocks one and four consisted of six consecutive PULSE ALONE trials, while blocks two and three contained six PULSE ALONE trials, five pp3+p120 trials, five pp6+p120 trials, five pp12+p120 trials, and four NO STIMULUS trials. Analyses were performed using average values for each trial type.
# Prepulse Inhibition: PPI was calculated as the averaged startle magnitude caused by PULSE ALONE trials from blocks two and three, minus the averaged startle magnitude caused by the prepulse-pulse trials, all divided by the averaged PULSE ALONE values from blocks two and three. The resulting value was multiplied by 100 and presented as a percent PPI value. Four-factor ANOVAs with fluoxetine and RU24969 as between subjects factors and prepulse intensity and block as within subjects variables assessed percent PPI levels. Interactions were resolved using post-hoc ANOVAs with adjusted p-values, and/or Newman-Keuls post-hoc tests.
# [2] = tested on: animals; conditions: animals without drug withdrawal or chronic stress; low dose fluoxetine; cited from earlier work
SMILES,PPI ([1]; 10 mg/kg RU24969 in mice treated subchronically with fluoxetine (1-2 days)),"Startle reactivity (blocks two and three) ([1]; 10 mg/kg/day RU24969, chronic fluoxetine study)","PPI ([1]; acute 10 mg/kg RU24969 i.p. in control mice (no fluoxetine), 3, 6, 12 dB prepulse intensities)","startle reactivity in the second and third blocks ([1]; subchronic fluoxetine study (1-2 days), 10 mg/kg RU24969)",intracranial self-stimulation reward thresholds [2]
"COc1ccc2[nH]cc(C3=CCNCC3)c2c1 [RU24969, 5-methoxy-3(1,2,3,6)tetrahydropyridin-4-yl-1H-indole]",disrupted PPI at each prepulse intensity,increased overall,disrupted PPI in control mice,no effects,–
CNCCCN1c2ccccc2CCc2ccccc21 [desmethylimipramine],–,–,–,–,no effect

# — patent US20050186137A1, “Novelty-induced hypophagia-based assays for identifying agents to treat anxiety and depression” (priority 2003, published 2005)
